Data taken from patent publication US20050137135A1 (priority 2002, published 2005).
Square brackets hold non-standard residues; d marks the D form. Ends that are not written are not given here. Peptide text beside a SMILES is read from it. Ahx = NCCCCCC(=O)O

T1: rat pancreatic islet (wild type) GIP-receptor (Rattus norvegicus, UniProt P43219)
T1 construct: expressed in transfected cells; host or cells: CHO-K1 (Chinese hamster ovary)
T1 sequence (P43219 19-455): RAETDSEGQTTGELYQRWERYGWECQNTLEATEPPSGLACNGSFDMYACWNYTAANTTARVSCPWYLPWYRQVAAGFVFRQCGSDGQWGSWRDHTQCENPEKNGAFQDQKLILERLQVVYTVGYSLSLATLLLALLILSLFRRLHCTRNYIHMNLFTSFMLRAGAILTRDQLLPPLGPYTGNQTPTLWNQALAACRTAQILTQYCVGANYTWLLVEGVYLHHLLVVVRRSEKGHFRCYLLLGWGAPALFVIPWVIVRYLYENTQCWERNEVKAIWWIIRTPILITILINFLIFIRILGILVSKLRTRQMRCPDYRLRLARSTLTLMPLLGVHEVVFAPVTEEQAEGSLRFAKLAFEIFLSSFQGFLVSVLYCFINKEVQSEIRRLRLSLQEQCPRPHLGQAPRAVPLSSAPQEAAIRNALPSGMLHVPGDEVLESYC

T2: rat pancreatic islet (wild type) GIP-receptor stably expressed on CHO-K1 cells (rat, UniProt P43219 19-455)
T2 sequence (looked up): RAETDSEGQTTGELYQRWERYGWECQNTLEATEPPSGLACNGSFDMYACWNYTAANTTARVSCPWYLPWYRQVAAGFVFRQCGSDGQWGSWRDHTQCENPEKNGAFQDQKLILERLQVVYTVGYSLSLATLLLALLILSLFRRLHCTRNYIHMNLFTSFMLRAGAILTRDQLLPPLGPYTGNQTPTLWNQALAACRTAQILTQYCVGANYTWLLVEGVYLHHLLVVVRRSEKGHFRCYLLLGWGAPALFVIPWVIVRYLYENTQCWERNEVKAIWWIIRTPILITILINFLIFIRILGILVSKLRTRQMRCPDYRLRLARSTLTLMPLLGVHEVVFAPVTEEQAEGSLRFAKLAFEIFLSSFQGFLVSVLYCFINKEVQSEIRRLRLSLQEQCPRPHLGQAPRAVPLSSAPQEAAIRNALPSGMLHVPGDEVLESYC


Assays:
purified kidney DPIV = molecular target: T3, purified kidney DPIV (Sus scrofa, UniProt P22411); assay: Determination of DPIV resistance by MALDI-TOF mass spectrometry; format: in vitro ADME; settings: for half-life: read-out: half life after incubation with DP IV
T3 construct: The hydrolysis of peptide analogues by purified kidney DPIV was studied as described previously [12]; from tissue; host or cells: kidney
T3 sequence (P22411 whole entry): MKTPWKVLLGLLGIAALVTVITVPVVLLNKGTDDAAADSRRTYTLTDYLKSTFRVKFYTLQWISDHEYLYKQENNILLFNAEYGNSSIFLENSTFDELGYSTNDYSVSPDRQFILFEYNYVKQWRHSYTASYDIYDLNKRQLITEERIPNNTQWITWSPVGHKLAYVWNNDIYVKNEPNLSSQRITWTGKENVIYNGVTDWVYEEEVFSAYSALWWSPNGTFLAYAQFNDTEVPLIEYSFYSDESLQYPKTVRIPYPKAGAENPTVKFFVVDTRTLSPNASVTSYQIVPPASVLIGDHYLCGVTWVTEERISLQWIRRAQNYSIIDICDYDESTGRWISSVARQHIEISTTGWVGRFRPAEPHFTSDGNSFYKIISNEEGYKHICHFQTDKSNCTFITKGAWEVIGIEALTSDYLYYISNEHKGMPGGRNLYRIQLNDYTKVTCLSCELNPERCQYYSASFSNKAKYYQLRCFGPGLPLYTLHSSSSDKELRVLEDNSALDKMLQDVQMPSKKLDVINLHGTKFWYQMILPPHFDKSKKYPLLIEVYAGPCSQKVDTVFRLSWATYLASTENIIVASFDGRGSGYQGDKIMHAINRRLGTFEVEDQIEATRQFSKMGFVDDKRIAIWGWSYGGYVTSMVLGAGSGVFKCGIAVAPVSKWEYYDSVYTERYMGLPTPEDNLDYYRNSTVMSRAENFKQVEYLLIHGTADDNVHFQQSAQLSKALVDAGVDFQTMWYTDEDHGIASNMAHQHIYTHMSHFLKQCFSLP
Experimental: (§1) The hydrolysis of peptide analogues by purified kidney DPIV was studied as described previously. […] Samples were removed from the incubation mixture and prepared for MALDI-TOF mass spectrometry, as described in Pauly, […]., Pederson, R. A., and Demuth, H. U.

[1] = molecular target: T4, DPIV (dipeptidyl peptidase IV) (Sus scrofa, UniProt P22411); assay: as above; format: in vitro ADME; settings: purified kidney DPIV, 0.04 M Tris buffer pH 7.6, up to 24 h, MALDI-TOF MS; read-out: half life after incubation with DP IV
T4 construct: The hydrolysis of peptide analogues by purified kidney DPIV was studied as described previously [12]; from tissue; host or cells: kidney
T4 sequence (P22411 whole entry): as above
Experimental: as §1

[2] = molecular target: T1, rat pancreatic islet (wild type) GIP-receptor; assay: biochemical; format: binding; settings: 10000.0
Experimental: Cells were cultured in DMEM/F12, supplemented with 10% newborn calf serum, 50 units/ml penicillin G, and 50 μg/ml streptomycin (Culture media and antibiotics from Gibco BRL, Life Technologies). Cells were grown in 75 cm^2 flasks until 80-90% confluent, when they were split and seeded onto 24 well plates at a density of 50,000 cells/well. Experiments were carried out 48 h later.
(§2) Binding studies using ^125I-labeled spGIP1-42, purified by high performance liquid chromatography (HPLC), were performed essentially as described previously-[21]. wtGIP-R1 Cells (1-5×10^5/well) were washed twice at 4° C. in binding buffer (BB), consisting of DMEM/F12 (GIBCO), 15 mM HEPES, 0.1% bovine serum albumin (BSA), 1% Trasylol (aprotinin; Bayer), pH 7.4. They were incubated for 12-16 h at 4° C. with ^125I-spGIP (50,000 cpm) in the presence or absence of unlabeled GIP1-42 or analogue. Following incubation, cells were washed twice with ice cold buffer, solubilized with 0.1 M NaOH (1 ml), and transferred to culture tubes for counting of cell-associated radioactivity. Nonspecific binding was defined as that measured in the presence of 1 μM GIP1-42 or GIP1-30, and specific binding expressed as % of binding in the absence of competitor (% B/Bo).

[3] = molecular target: T2, rat pancreatic islet (wild type) …; assay: cell-based or functional assay
[4] = molecular target: T2, rat pancreatic islet (wild type) …; assay: competition with 125I-GIP on CHO-K1 cells transfected with rat GIP receptor
Experimental: (§3) Cells were cultured in DMEM/F12, supplemented with 10% newborn calf serum, 50 units/ml penicillin G, and 50 μg/ml streptomycin (Culture media and antibiotics from Gibco BRL, Life Technologies). Cells were grown in 75 cm² flasks until 80-90% confluent, when they were split and seeded onto 24 well plates at a density of 50,000 cells/well. Experiments were carried out 48 h later.
as §2, with “¹²⁵I-labeled spGIP₁₋₄₂,” for “^125I-labeled spGIP1-42,”, “(1-5×10⁵/well)” for “(1-5×10^5/well)”, “¹²⁵I-spGIP” for “^125I-spGIP”, “GIP₁₋₄₂” for “GIP1-42”, “GIP₁₋₃₀,” for “GIP1-30,”

[5] = molecular target: T2, rat pancreatic islet (wild type) …; assay: displacement of 125I-GIP from CHO-K1 cells transfected with rat GIP receptor, 20 µM peptide
Experimental: as §3
as §2, with “¹²⁵I-labeled spGIP₁₋₄₂,” for “^125I-labeled spGIP1-42,”, “(1-5×10⁵/well)” for “(1-5×10^5/well)”, “¹²⁵I-spGIP” for “^125I-spGIP”, “GIP₁₋₄₂” for “GIP1-42”, “GIP₁₋₃₀,” for “GIP1-30,”

[6] = purified kidney DPIV, 0.04 M Tris buffer pH 7.6, up to 24 h, MALDI-TOF MS

Molecule | half life after incubation with DP IV (purified kidney DPIV; [6]) | half-life [1] | also measured
C[C@@H](NC(=O)[C@@H](N)Cc1ccc(O)cc1)C(=O)N[C@@H](CCC(=O)O)C(=O)NCC(=O)N[C@H](C(=O)N[C@@H](Cc1ccccc1)C(N)=O)[C@@H](C)O [D-Ala^2-GIP1-6a] (H-Y[dA]EGTF-NH2) | stable |  | 
CC[C@H](C)[C@H](NC(=O)[C@H](CO)NC(=O)[C@H](Cc1ccc(O)cc1)NC(=O)[C@H](CC(=O)O)NC(=O)[C@H](CO)NC(=O)[C@@H](NC(=O)[C@H](Cc1ccccc1)NC(=O)[C@@H](NC(=O)CNC(=O)[C@H](CCC(=O)O)NC(=O)[C@@H](C)NC(=O)[C@@H](N)Cc1ccc(O)cc1)[C@@H](C)O)[C@@H](C)CC)C(=O)N[C@@H](C)C(=O)N[C@@H](CCSC)C(=O)O [D-Ala^2-GIP1-14] | stable |  | 
CC[C@H](C)[C@H](NC(=O)[C@H](CO)NC(=O)[C@H](Cc1ccc(O)cc1)NC(=O)[C@H](CC(=O)O)NC(=O)[C@H](CO)NC(=O)[C@@H](NC(=O)[C@H](Cc1ccccc1)NC(=O)[C@@H](NC(=O)CNC(=O)[C@@H](CCC(=O)O)NC(=O)[C@H](C)NC(=O)[C@@H](N)Cc1ccc(O)cc1)[C@@H](C)O)[C@@H](C)CC)C(=O)N[C@@H](C)C(=O)N[C@@H](CCSC)C(=O)N[C@@H](CC(=O)O)C(=O)N[C@@H](CCCCN)C(=O)N[C@H](C(=O)N[C@@H](CCCNC(=N)N)C(=O)N[C@@H](CCC(N)=O)C(=O)N[C@@H](CCC(N)=O)C(=O)N[C@@H](CC(=O)O)C(=O)N[C@@H](Cc1ccccc1)C(=O)N[C@H](C(=O)N[C@@H](CC(N)=O)C(=O)N[C@@H](Cc1c[nH]c2ccccc12)C(=O)N[C@@H](CC(C)C)C(=O)N[C@@H](CC(C)C)C(=O)N[C@@H](C)C(=O)N[C@@H](CCC(N)=O)C(=O)N[C@@H](CCCCN)C(N)=O)C(C)C)[C@@H](C)CC [D-Glu^3-GIP1-30] (H-YA[dE]GTFISDYSIAMDKIRQQDFVNWLLAQK-NH2; N-terminus and C-terminus assumed) |  | 40.3 ± 4.8 min | 
CC[C@H](C)[C@H](NC(=O)[C@H](CO)NC(=O)[C@H](Cc1ccc(O)cc1)NC(=O)[C@H](CC(=O)O)NC(=O)[C@H](CO)NC(=O)[C@@H](NC(=O)[C@H](Cc1ccccc1)NC(=O)[C@@H](NC(=O)CNC(=O)[C@H](CCC(=O)O)NC(=O)[C@H](C)NC(=O)[C@@H](N)Cc1ccc(O)cc1)[C@@H](C)O)[C@@H](C)CC)C(=O)N[C@@H](C)C(=O)O [GIP1-13] |  |  | half-life (purified kidney DPIV; [6]): 11.5 ± 2.5 min
CC[C@H](C)[C@H](NC(=O)[C@H](CO)NC(=O)[C@H](Cc1ccc(O)cc1)NC(=O)[C@H](CC(=O)O)NC(=O)[C@H](CO)NC(=O)[C@@H](NC(=O)[C@H](Cc1ccccc1)NC(=O)[C@@H](NC(=O)CNC(=O)[C@H](CCC(=O)O)NC(=O)[C@H](C)NC(=O)[C@@H](N)Cc1ccc(O)cc1)[C@@H](C)O)[C@@H](C)CC)C(=O)N[C@@H](C)C(=O)N[C@@H](CCSC)C(=O)N[C@@H](CC(=O)O)C(=O)O [GIP1-15] |  |  | half-life (purified kidney DPIV; [6]): 35 ± 5.2 min
D-Ala^2-GIP1-30a: GIP1-30 analog, N-terminal sequence Tyr-D-Ala-Glu-Gly (Y[dA]EGTFISDYSIAMDKIRQQDFVNWLLAQK-NH2) |  |  | half life after incubation with DP IV (purified kidney DPIV; pH 7.6): stable
Tyr-Ala-Ψ(CH2NH2)-Glu-Gly-Thr-Phe-Ile-Ser-Asp-Tyr-Ser-Ile-Ala-Met (EGTFISDYSIAM; not fully specified; N-terminal Tyr-Ala reduced bond, C-amide; printed: Glu-Gly-Thr-Phe-Ile-Ser-Asp-Tyr-Ser-Ile-Ala-Met) [YAψ(CH2NH)-GIP3-14a, GIP1-14 analogue with a reduced peptide bond] |  |  | half life after incubation with DP IV (purified kidney DPIV; pH 7.6): stable
Tyr-Ala-ψ(CH2NH)-Glu-Gly-Thr-Phe-Ile-Ser-Asp-Tyr-Ser-Ile-Ala-Met-Asp-Lys-Ile-His-Gln-Gln-Asp-Phe-Val-Asn-Trp-Leu-Leu-Ala-Gln-Lys [YAψ(CH2NH)-GIP3-30a] |  |  | half life after incubation with DP IV (purified kidney DPIV; pH 7.6): stable
YAEGTF-NH2 [GIP1-6a] |  | > 7.5 min | Receptor Binding % Displacement at 10 μM [2]: −3.6 ± 7.8%
YAPGTF-NH2 [Pro3-GIP1-6a] | stable |  | 
YAPGTFISDYSIAM [Pro^3-GIP1-14] | stable |  | 
YGEGTF-NH2 [Gly^2-GIP1-6a] | Not detectable^b |  | 
YGEGTFISDYSIAMDKIRQQDFVNWLLAQK-NH2 [Gly^2-GIP1-30a] |  | 150 ± 27.3 min | 
YPEGTF-NH2 [Pro^2-GIP1-6a] |  | > 7.5 min | 
YSEGTF-NH2 [Ser^2-GIP1-6a] |  |  | half-life (purified kidney DPIV; [6]): 79 ± 12.2 min
YSEGTFISDYSIAMDKIRQQDFVNWLLAQK-NH2 [Ser^2-GIP1-30a] |  | 137 ± 12.3 min | 
YVEGTF-NH2 [Val^2-GIP1-6a] | Not detectable |  | 
YVEGTFISDYSIAMDKIRQQDFVNWLLAQK-NH2 [Val^2-GIP1-30a] |  | 298 ± 92.2 min | 
YAEGTFISDYSIAM[Ahx][Ahx][Ahx]QQDFVNWLLAQK-NH2 (peptide, UniProt P09681 52-65, looked up, N-terminus assumed; SMILES CC[C@H](C)[C@H](NC(=O)[C@H](CO)NC(=O)[C@H](Cc1ccc(O)cc1)NC(=O)[C@H](CC(=O)O)NC(=O)[C@H](CO)NC(=O)[C@@H](NC(=O)[C@H](Cc1ccccc1)NC(=O)[C@@H](NC(=O)CNC(=O)[C@H](CCC(=O)O)NC(=O)[C@H](C)NC(=O)[C@@H](N)Cc1ccc(O)cc1)[C@@H](C)O)[C@@H](C)CC)C(=O)N[C@@H](C)C(=O)N[C@@H](CCSC)C(=O)NCCCCCC(=O)NCCCCCC(=O)NCCCCCC(=O)N[C@@H](CCC(N)=O)C(=O)N[C@@H](CCC(N)=O)C(=O)N[C@@H](CC(=O)O)C(=O)N[C@@H](Cc1ccccc1)C(=O)N[C@H](C(=O)N[C@@H](CC(N)=O)C(=O)N[C@@H](Cc1c[nH]c2ccccc12)C(=O)N[C@@H](CC(C)C)C(=O)N[C@@H](CC(C)C)C(=O)N[C@@H](C)C(=O)N[C@@H](CCC(N)=O)C(=O)N[C@@H](CCCCN)C(N)=O)C(C)C, range 52-65; also called GlP(1-14)(Ahx)3(19-30)NH2) [GIP(1-14)(Ahx)3(19-30)NH2] |  |  | Max. cAMP (Fold Basal) [3]: 49.5 fold basal; cAMP Production EC50 [3]: ~20 µM; IC50 [4]: 3.21 µM; % Displacement at 20 µM [5]: 82.7%
